This is an account of results in patent US20140329682A1, “METHOD OF CONTROLLING WEED IN A SUGAR CANE FIELD” (SUMITOMO CHEMICAL COMPANY, LIMITED, priority 2011, published 2014).

Series [1] deals with Amaranthus retroflexus. Kind of series: Herbicidal activity, soil surface spray, strobilurin-treated stem cutting (Example 8). The conditions noted are these: 3 cm stem cutting treated with kresoxim-methyl, azoxystrobin or another listed strobilurin fungicide, four weeks after treatment. Format: in vivo.
Text: A 30 cm to 40 cm stem cutting of sugar cane is placed on a wet soil, and germination is stimulated. The stem cutting from which a bud has grown to about 1 cm is selected, and the length of the stem cutting is adjusted to be 3 cm so that the stem cutting has one node. Kresoxim-methyl, azoxystrobin, trifloxystrobin, fluoxastrobin, picoxystrobin, pyraclostrobin, dimoxystrobin, pyribencarb, metominostrobin, orysastrobin, enestrobin, pyraoxystrobin or pyrametostrobin is adhered to the stem cutting. A soil is packed into a plastic pot, and seeds of Amaranthus retroflexus are seeded thereon. The stem cutting of sugar cane treated with kresoxim-methyl, azoxystrobin, trifloxystrobin, fluoxastrobin, picoxystrobin, pyraclostrobin, dimoxystrobin, pyribencarb, metominostrobin, orysastrobin, enestrobin, pyraoxystrobin or pyrametostrobin is planted in the soil packed into the pot at a depth of 2 cm. […] Thereafter, the pot for a test is placed in a greenhouse.
Series [2] relates to Amaranthus retroflexus. Kind of series: Herbicidal activity, soil surface spray, insecticide-treated stem cutting (Example 6). The conditions noted are these: 3 cm stem cutting treated with clothianidin, thiamethoxiam, imidacloprid, dinotefuran, nitenpyram, acetamiprid or thiacloprid, four weeks after treatment. Type of series: in vivo.
Series [3] relates to sugar cane. Kind of series: Phytotoxicity on sugar cane, spray above weed before planting, strobilurin-treated stem cutting (Example 9). How it is done:
(§1) The “phytotoxicity” evaluated herein is the damage characteristic determined to be due to a treated compound, and is clearly discriminated from the damage characteristic caused by a harmful animal or plant disease.
(§2) A soil is packed into a plastic pot, and seeds of Amaranthus retroflexus are seeded thereon. Thereafter, the pot is placed in a greenhouse, and the weed is grown.
A 30 cm to 40 cm stem cutting of sugar cane is placed on a wet soil, and germination is stimulated. The stem cutting from which a bud has grown to about 1 cm is selected, and the length of the stem cutting is adjusted to be 3 cm so that the stem cutting has one node. Kresoxim-methyl, azoxystrobin, trifloxystrobin, fluoxastrobin, picoxystrobin, pyraclostrobin, dimoxystrobin, pyribencarb, metominostrobin, orysastrobin, enestrobin, pyraoxystrobin or pyrametostrobin is adhered to the stem cutting.
(§3) The pot for a test is placed in a greenhouse.

Series [4] relates to sugar cane. Kind of series: Phytotoxicity on sugar cane, soil surface spray, azole-fungicide-treated stem cutting (Example 10).
Text: as §1
A 30 to 40 cm stem cutting of sugar cane is placed on a wet soil, and germination is stimulated. The stem cutting from which a bud has grown to about 1 cm is selected, and the length of the stem cutting is adjusted to be 3 cm so that the stem cutting has one node. Azaconazole, bitertanol, bromoconazole, cyproconazole, difenoconazole, diniconazole, epoxyconazole, fenbuconazole, fluquinconazole, flusilazole, flutriafol, hexaconazole, imibenconazole, ipconazole, metconazole, myclobutanil, penconazole, propiconazole, prothioconazole, simeconazole, tebuconazole, tetraconazole, triadimenol, triticonazole, fenarimol, nuarimol, pyrifenox, imazalil, oxpoconazole fumarate, pefurazoate, procloraz or triflumizole is adhered to the stem cutting. A soil is packed into a plastic pot, and seeds of Amaranthus retroflexus are seeded thereon. The stem cutting of sugar cane treated with azaconazole, bitertanol, bromoconazole, cyproconazole, difenoconazole, diniconazole, epoxyconazole, fenbuconazole, fluquinconazole, flusilazole, flutriafol, hexaconazole, imibenconazole, ipconazole, metconazole, myclobutanil, penconazole, propiconazole, prothioconazole, simeconazole, tebuconazole, tetraconazole, triadimenol, triticonazole, fenarimol, nuarimol, pyrifenox, imazalil, oxpoconazole fumarate, pefurazoate, procloraz or triflumizole is planted in the soil packed into the pot at a depth of 2 cm. […] Thereafter, the pot for a test is placed in a greenhouse.

For series [5], the system named is Amaranthus retroflexus. The series is described as follows: Herbicidal activity, spray above weed before planting, metalaxyl-treated stem cutting (Example 13). The conditions noted are these: sprayed above weed, 3 cm stem cutting treated with metalaxyl or metalaxyl-M planted one week after treatment, four weeks after treatment. Type of series: in vivo.
Description: A soil is packed into a plastic pot, and seeds of Amaranthus retroflexus are seeded thereon. Thereafter, a pot is placed in a greenhouse, and the weed is grown.
A 30 cm to 40 cm stem cutting of sugar cane is placed on a wet soil, and germination is stimulated. The stem cutting from which a bud has grown to about 1 cm is selected, and the length of the stem cutting is adjusted to be 3 cm so that the stem cutting has one node. Metalaxyl or metalaxyl-M is adhered to the stem cutting.
Series [6] relates to Amaranthus retroflexus. The series is described as follows: Herbicidal activity, soil surface spray, metalaxyl-treated stem cutting (Example 12). Format: in vivo. The conditions noted are these: 3 cm stem cutting treated with metalaxyl or metalaxyl-M, four weeks after treatment. How it is done:
A soil is packed into a plastic pot. Seeds of Amaranthus retroflexus are seeded thereon.

In series [7] the test system is sugar cane. Kind of series: Phytotoxicity on sugar cane, soil surface spray, insecticide-treated stem cutting (Example 6).
Text: as §1
A 30 cm to 40 cm stem cutting of sugar cane is placed on a wet soil, and germination is stimulated. The stem cutting from which a bud has grown to about 1 cm is selected, and the length of the stem cutting is adjusted to be 3 cm so that the stem cutting has one node. Clothianidin, thiamethoxiam, imidacloprid, dinotefuran, nitenpyram, acetamiprid or thiacloprid is adhered to the stem cutting. A soil is packed into a plastic pot, and seeds of Amaranthus retroflexus are seeded thereon. The stem cutting of sugar cane treated with clothianidin, thiamethoxiam, imidacloprid, dinotefuran, nitenpyram, acetamiprid or thiacloprid is planted in the soil packed into the pot at a depth of 2 cm. […] Thereafter, the pot for a test is placed in a greenhouse.

The subject of series [8] is Amaranthus retroflexus. The series is described as follows: Herbicidal activity, spray above weed one week before planting (Example 5). Format: in vivo. The conditions noted are these: sprayed above weed three weeks after seeding, 3 cm stem cutting planted one week after treatment, four weeks after treatment.
The test system of series [9] is Amaranthus retroflexus. The series is described as follows: Herbicidal activity, spray above weed before planting, azole-fungicide-treated stem cutting (Example 11). Format: in vivo. The conditions noted are these: sprayed above weed, 3 cm stem cutting treated with azaconazole, bitertanol or another listed azole-type fungicide planted one week after treatment, four weeks after treatment.

Series [10] relates to sugar cane. Kind of series: Phytotoxicity on sugar cane, spray above weed one week before planting (Example 5). How it is done:
as §1, §2
A 30 cm to 40 cm stem cutting of sugar cane is placed on a wet soil, and germination is stimulated. The stem cutting from which a bud has been grown to about 1 cm is selected, and the length of the stem cutting is adjusted to be 3 cm so that the stem cutting has one node.
as §3

The subject of series [11] is Amaranthus retroflexus. Kind of series: Herbicidal activity, spray above weed before planting, insecticide-treated stem cutting (Example 7). Format: in vivo. The conditions noted are these: sprayed above weed, 3 cm stem cutting treated with clothianidin, thiamethoxiam, imidacloprid, dinotefuran, nitenpyram, acetamiprid or thiacloprid planted one week after treatment, four weeks after treatment.

Series [12] has as its system sugar cane. Kind of series: Phytotoxicity on sugar cane, spray above weed before planting, insecticide-treated stem cutting (Example 7). How it is done:
as §1, §2
A 30 cm to 40 cm stem cutting of sugar cane is placed on a wet soil, and germination is stimulated. The stem cutting from which a bud has grown to about 1 cm is selected, and the length of the stem cutting is adjusted to be 3 cm so that the stem cutting has one node. Clothianidin, thiamethoxiam, imidacloprid, dinotefuran, nitenpyram, acetamiprid or thiacloprid is adhered to the stem cutting.
as §3

The test system of series [13] is sugar cane. Kind of series: Phytotoxicity on sugar cane, spray above weed before planting, azole-fungicide-treated stem cutting (Example 11). How it is done: as §1
A soil is packed into a plastic pat, and seeds of Amaranthus retroflexus are seeded thereon. Thereafter, the pot is placed in a greenhouse, and the weed is grown.
A 30 cm to 40 cm stem cutting of sugar cane is placed on a wet soil, and germination is stimulated. The stem cutting from which a bud has grown to about 1 cm is selected, and the length of the stem cutting is adjusted to be 3 cm so that the stem cutting has one node. Azaconazole, bitertanol, bromoconazole, cyproconazole, difenoconazole, diniconazole, epoxyconazole, fenbuconazole, fluquinconazole, flusilazole, flutriafol, hexaconazole, imibenconazole, ipconazole, metconazole, myclobutanil, penconazole, propiconazole, prothioconazole, simeconazole, tebuconazole, tetraconazole, triadimenol, triticonazole, fenarimol, nuarimol, pyrifenox, imazalil, oxpoconazole fumarate, pefurazoate, procloraz or triflumizole is adhered to the stem cutting.
as §3

[14] abbreviates: Example 9, sprayed above weed, 3 cm stem cutting treated with kresoxim-methyl, azoxystrobin or another listed strobilurin fungicide planted one week after treatment, four weeks after treatment.
[15] abbreviates: Example 10, 3 cm stem cutting treated with azaconazole, bitertanol or another listed azole-type fungicide, soil surface spray, four weeks after treatment.
The mark [16] stands for this setting: Example 6, 3 cm stem cutting treated with clothianidin, thiamethoxiam, imidacloprid, dinotefuran, nitenpyram, acetamiprid or thiacloprid, soil surface spray, four weeks after treatment.
Where [17] appears, read: Example 5, sprayed above weed three weeks after seeding, 3 cm stem cutting planted one week after treatment, four weeks after treatment.
Setting [18] is: Example 7, sprayed above weed, 3 cm stem cutting treated with clothianidin, thiamethoxiam, imidacloprid, dinotefuran, nitenpyram, acetamiprid or thiacloprid planted one week after treatment, four weeks after treatment.
Where [19] appears, read: Example 11, sprayed above weed, 3 cm stem cutting treated with azaconazole, bitertanol or another listed azole-type fungicide planted one week after treatment, four weeks after treatment.

As to `Cc1nn(-c2cc(NS(C)(=O)=O)c(Cl)cc2Cl)c(=O)n1C(F)F` [sulfentrazone], the “herbicidal activity against Amaranthus retroflexus” value (“herbicidal activity” for short) in the series on Amaranthus retroflexus [1], in the series with Amaranthus retroflexus [2], with Amaranthus retroflexus [5], with Amaranthus retroflexus [6], in the series on Amaranthus retroflexus [8] and in the series on Amaranthus retroflexus [9] was “the controlling effect on a weed can be confirmed” in each case. Further, in the series with Amaranthus retroflexus [11], the “herbicidal activity” value is recorded as “the controlling effect on a weed can be confirmed”. For the same compound, the phytotoxicity entry with sugar cane [3] (in vivo) was “significant phytotoxicity on sugar cane is not observed”; with sugar cane [4] (in vivo) it was “significant phytotoxicity on sugar cane is not observed”; with sugar cane [7] (in vivo), “significant phytotoxicity on sugar cane is not observed”; in the series on sugar cane [10] (in vivo) it was “significant phytotoxicity on sugar cane is not found”; with sugar cane [12] (in vivo), “significant phytotoxicity on sugar cane is not observed”; in the series with sugar cane [13] (in vivo), “significant phytotoxicity on sugar cane is not observed”.
With `C#CCN1C(=O)COc2cc(F)c(N3C(=O)C4=C(CCCC4)C3=O)cc21` [Flumioxazin, flumioxazin], the “herbicidal activity” value with Amaranthus retroflexus [1], in the series with Amaranthus retroflexus [2], in the series on Amaranthus retroflexus [5], in the series on Amaranthus retroflexus [6], in the series on Amaranthus retroflexus [8] and in the series on Amaranthus retroflexus [9] was “the controlling effect on a weed can be confirmed” in each case. Besides, the “herbicidal activity” value with Amaranthus retroflexus [11] is listed as “the controlling effect on a weed can be confirmed”. The phytotoxicity result is “significant phytotoxicity on sugar cane is not observed” with sugar cane [3] (setting [14]); “significant phytotoxicity on sugar cane is not observed” with sugar cane [4] (setting [15]); “significant phytotoxicity on sugar cane is not observed” in the series on sugar cane [7] (setting [16]); “significant phytotoxicity on sugar cane is not found” in the series with sugar cane [10] (setting [17]); “significant phytotoxicity on sugar cane is not observed” in the series with sugar cane [12] (setting [18]); “significant phytotoxicity on sugar cane is not observed” in the series on sugar cane [13] (setting [19]).
Take `CC(C)Oc1cc(-n2nc(C(C)(C)C)oc2=O)c(Cl)cc1Cl` [oxadiazon]: the “herbicidal activity” value with Amaranthus retroflexus [1], with Amaranthus retroflexus [2], in the series with Amaranthus retroflexus [5], in the series on Amaranthus retroflexus [6], in the series with Amaranthus retroflexus [8] and with Amaranthus retroflexus [9] was “the controlling effect on a weed can be confirmed” in each case. In addition, in the series with Amaranthus retroflexus [11], the “herbicidal activity” value was “the controlling effect on a weed can be confirmed”. For the same compound, the phytotoxicity entry is “significant phytotoxicity on sugar cane is not observed” with sugar cane [3] (in vivo); “significant phytotoxicity on sugar cane is not observed” in the series with sugar cane [4] (in vivo); “significant phytotoxicity on sugar cane is not observed” in the series with sugar cane [7] (in vivo); “significant phytotoxicity on sugar cane is not found” with sugar cane [10] (in vivo); “significant phytotoxicity on sugar cane is not observed” with sugar cane [12] (in vivo); “significant phytotoxicity on sugar cane is not observed” in the series with sugar cane [13] (in vivo).
Consider `CC(C)N(C)S(=O)(=O)NC(=O)c1cc(-n2c(=O)cc(C(F)(F)F)n(C)c2=O)c(F)cc1Cl` [Saflufenacil, saflufenacil], for which the “herbicidal activity” value in the series with Amaranthus retroflexus [1], in the series with Amaranthus retroflexus [2], in the series with Amaranthus retroflexus [5], in the series on Amaranthus retroflexus [6], in the series on Amaranthus retroflexus [8] and with Amaranthus retroflexus [9] was “the controlling effect on a weed can be confirmed” in each case. Moreover, the “herbicidal activity” value with Amaranthus retroflexus [11] is “the controlling effect on a weed can be confirmed”. Moreover, the phytotoxicity entry with sugar cane [3] (setting [14]) was “significant phytotoxicity on sugar cane is not observed”; in the series with sugar cane [4] (setting [15]) it was “significant phytotoxicity on sugar cane is not observed”; with sugar cane [7] (setting [16]) it was “significant phytotoxicity on sugar cane is not observed”; in the series on sugar cane [10] (setting [17]), “significant phytotoxicity on sugar cane is not found”; with sugar cane [12] (setting [18]), “significant phytotoxicity on sugar cane is not observed”; with sugar cane [13] (setting [19]), “significant phytotoxicity on sugar cane is not observed”.
